Like-named read-outs stand apart in the source and are kept apart here.
Assays:
[1] = tested on: p21 induction in HCT 116 cells; experiment: p21 induction in cells (In-Cell Western, p21/GAPDH ratio); assay type: cell-based; details: 24 h compound incubation, read-out: p21_EC50
Outline: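 EC50 values come from nonlinear fits of percent activation, defined by the 800/700 nm p21-to-GAPDH ratio scaled between DMSO (low) and internal WRN inhibitor (high) controls. In-Cell Western read after 24 h compound exposure of HCT 116 cells at 37° C. Duplicate 11-point series, 2-fold steps, usually starting at 10 μM.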

[2] = molecular target: human Werner helicase (WRN, amino acids 517-1235 with L1074F point mutation) (Homo sapiens (Human), UniProt Q14191, L1074F); experiment: WRN (BV08) ADP-Glo assay; assay type: biochemical; details: human WRN (aa 517-1235, L1074F), read-out: ADP-Glo_hWRN_IC50
Outline: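 ADP-Glo luminescence read after 60 min, 25 °C reaction of 0.15 nM WRN (517-1235, L1074F, Sf9-expressed, tag removed) with 0.1 nM DNA duplex and 5 μM ATP, following 15 min compound preincubation; 20 mM Bicine pH 7.5, 1% DMSO. IC50 from 3- or 4-parameter fit of % inhibition.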

Sequence of human Werner helicase (WRN, amino acids 517-1235 with L1074F point mutation) (Q14191 other isoform, or with tags, fused parts or gaps L1074F (already in the parent)): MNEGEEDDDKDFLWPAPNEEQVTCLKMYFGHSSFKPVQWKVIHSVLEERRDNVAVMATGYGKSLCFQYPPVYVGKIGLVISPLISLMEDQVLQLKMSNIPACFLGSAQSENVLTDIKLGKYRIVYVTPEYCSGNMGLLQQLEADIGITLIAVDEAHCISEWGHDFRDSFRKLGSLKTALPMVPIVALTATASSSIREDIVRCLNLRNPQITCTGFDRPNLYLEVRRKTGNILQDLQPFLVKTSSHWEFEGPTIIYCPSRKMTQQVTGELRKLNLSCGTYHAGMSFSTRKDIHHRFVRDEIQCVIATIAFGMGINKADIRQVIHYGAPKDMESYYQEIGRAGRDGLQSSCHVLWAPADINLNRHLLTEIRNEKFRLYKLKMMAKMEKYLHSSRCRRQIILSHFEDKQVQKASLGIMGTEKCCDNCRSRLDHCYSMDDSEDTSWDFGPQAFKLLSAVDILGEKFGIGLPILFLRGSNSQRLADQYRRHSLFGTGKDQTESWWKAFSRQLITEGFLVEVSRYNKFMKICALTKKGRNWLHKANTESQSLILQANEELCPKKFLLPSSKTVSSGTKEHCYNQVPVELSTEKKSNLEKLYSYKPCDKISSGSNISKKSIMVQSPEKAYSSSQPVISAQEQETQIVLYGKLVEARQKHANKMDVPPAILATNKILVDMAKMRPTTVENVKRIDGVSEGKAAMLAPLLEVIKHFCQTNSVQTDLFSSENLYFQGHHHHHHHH

Row | SMILES | EC50 ([1]; Homo sapiens) | IC50 [2] | EC50 [1]
1 | CCc1c(N2CCN(C(=O)c3c(OC)ncc(C)c3O)CC2)c(=O)c2nn(-c3ccnc(OC)c3)nc2n1CC(=O)NC12CC(C3CC3)(C1)C2 [Compound I-129, N-{3-cyclopropylbicyclo[1.1.1]pentan-1-yl}-2-{5-ethyl-6-[4-(4-hydroxy-2-methoxy-5-methylpyridine-3-carbonyl)piperazin-1-yl]-2-(2-methoxypyridin-4-yl)-7-oxo-2H,4H,7H-[1,2,3]triazolo[4,5-b]pyridin-4-yl}acetamide] | ≤ 500 nM | 5 to 50 nM | –
2 | CCc1c(N2CCN(C(=O)c3c(O)ccc4ncoc34)CC2)c(=O)c2nn(-c3ccnc(OC)c3)nc2n1CC(=O)NC12CC(C(F)(F)F)(C1)C2 [Compound I-3, 2-(5-ethyl-6-(4-(6-hydroxybenzo[d]oxazole-7-carbonyl)piperazin-1-yl)-2-(2-methoxypyridin-4-yl)-7-oxo-2,7-dihydro-4H-[1,2,3]triazolo[4,5-b]pyridin-4-yl)-N-(3-(trifluoromethyl)bicyclo[1.1.1]pentan-1-yl)acetamide] | – | 5 to 50 nM | ≤ 500 nM
3 | CCc1c(N2CCN(C(=O)c3ccccn3)[C@H]3CC[C@@H]32)c(=O)c2nn(C3=CCOCC3)nc2n1CC(=O)NC12CC(C(C)C)(C1)C2 [Compound I-184, 2-[2-(3,6-dihydro-2H-pyran-4-yl)-5-ethyl-7-oxo-6-[(1S,6S)-5-(pyridine-2-carbonyl)-2,5-diazabicyclo[4.2.0]octan-2-yl]-2H,4H,7H-[1,2,3]triazolo[4,5-b]pyridin-4-yl]-N-[3-(propan-2-yl)bicyclo[1.1.1]pentan-1-yl]acetamide] | 500 to 2000 nM | 5 to 50 nM | –
4 | CCc1c(N2CCN(C(=O)c3cnn(C)c3OC)[C@H]3CC[C@@H]32)c(=O)c2nn(C3=CCOCC3)nc2n1CC(=O)NC12CC(C(C)C)(C1)C2 [Compound I-210, 2-[2-(3,6-dihydro-2H-pyran-4-yl)-5-ethyl-6-[(1S,6S)-5-(5-methoxy-1-methyl-1H-pyrazole-4-carbonyl)-2,5-diazabicyclo[4.2.0]octan-2-yl]-7-oxo-2H,4H,7H-[1,2,3]triazolo[4,5-b]pyridin-4-yl]-N-[3-(propan-2-yl)bicyclo[1.1.1]pentan-1-yl]acetamide] | 500 to 2000 nM | 5 to 50 nM | –
5 | CCc1c(N2CCN(C(=O)OC)[C@H]3CC[C@@H]32)c(=O)c2nn(C3=CCOCC3)nc2n1CC(=O)NC12CC(C(C)C)(C1)C2 [Compound I-162, methyl (1S,6S)-5-[2-(3,6-dihydro-2H-pyran-4-yl)-5-ethyl-7-oxo-4-({[3-(propan-2-yl)bicyclo[1.1.1]pentan-1-yl]carbamoyl}methyl)-2H,4H,7H-[1,2,3]triazolo[4,5-b]pyridin-6-yl]-2,5-diazabicyclo[4.2.0]octane-2-carboxylate] | ≤ 500 nM | 5 to 50 nM | –
6 | CCc1c(N2CCN(C(=O)c3c(OC)ncc(Cl)c3O)[C@H]3CC[C@@H]32)c(=O)c2nn(C3=CCOCC3)nc2n1CC(=O)NC12CC(C3CC3)(C1)C2 [Compound I-213, 2-{6-[(1S,6S)-5-(5-chloro-4-hydroxy-2-methoxypyridine-3-carbonyl)-2,5-diazabicyclo[4.2.0]octan-2-yl]-2-(3,6-dihydro-2H-pyran-4-yl)-5-ethyl-7-oxo-2H,4H,7H-[1,2,3]triazolo[4,5-b]pyridin-4-yl}-N-{3-cyclopropylbicyclo[1.1.1]pentan-1-yl}acetamide] | 2000 to 5000 nM | 5 to 50 nM | –
7 | CCc1c(N2CCN(C(=O)c3ncccc3OC)[C@H]3CC[C@@H]32)c(=O)c2nn(C3=CCOCC3)nc2n1CC(=O)NC12CC(C(C)C)(C1)C2 [Compound I-204, 2-[2-(3,6-dihydro-2H-pyran-4-yl)-5-ethyl-6-[(1S,6S)-5-(3-methoxypyridine-2-carbonyl)-2,5-diazabicyclo[4.2.0]octan-2-yl]-7-oxo-2H,4H,7H-[1,2,3]triazolo[4,5-b]pyridin-4-yl]-N-[3-(propan-2-yl)bicyclo[1.1.1]pentan-1-yl]acetamide] | 500 to 2000 nM | 5 to 50 nM | –
8 | CCc1c(N2CCN(C(=O)c3ncnc(C)c3O)CC2)c(=O)c2nn(-c3ccnc(OC)c3)nc2n1CC(=O)NC12CC(C3CC3)(C1)C2 [Compound I-135, N-{3-cyclopropylbicyclo[1.1.1]pentan-1-yl}-2-{5-ethyl-6-[4-(5-hydroxy-6-methylpyrimidine-4-carbonyl)piperazin-1-yl]-2-(2-methoxypyridin-4-yl)-7-ox0-2H,4H,7H-[1,2,3]triazolo[4,5-b]pyridin-4-yl}acetamide] | ≤ 500 nM | 5 to 50 nM | –
9 | CCc1c(N2CCN(C(=O)c3ncnc(C)c3O)[C@H]3CC[C@@H]32)c(=O)c2nn(-c3ccnc(OC)c3)nc2n1CC(=O)NC1CC2(C1)CC2F (stereo partly drawn) [Compound I-69, 2-{5-ethyl-6-[(1S,6S)-5-(5-hydroxy-6-methylpyrimidine-4-carbonyl)-2,5-diazabicyclo[4.2.0]octan-2-yl]-2-(2-methoxypyridin-4-yl)-7-oxo-2H,4H,7H-[1,2,3]triazolo[4,5-b]pyridin-4-yl}-N-{1-fluorospiro[2.3]hexan-5-yl}acetamide] | 500 to 2000 nM | 5 to 50 nM | –
10 | CCc1c(N2CCN(C(=O)c3cccnc3OC)[C@H]3CC[C@@H]32)c(=O)c2nn(C3=CCOCC3)nc2n1CC(=O)Nc1ccc(C(F)F)cc1F [Compound I-211, N-[4-(difluoromethyl)-2-fluorophenyl]-2-[2-(3,6-dihydro-2H-pyran-4-yl)-5-ethyl-6-[(1S,6S)-5-(2-methoxypyridine-3-carbonyl)-2,5-diazabicyclo[4.2.0]octan-2-yl]-7-oxo-2H,4H,7H-[1,2,3]triazolo[4,5-b]pyridin-4-yl]acetamide] | ≤ 500 nM | ≤ 5 nM | –
11 | CCc1c(N2CCN(C(=O)c3c(OC)ncc(C)c3O)[C@H]3CC[C@@H]32)c(=O)c2nn(-c3ccnc(C)c3)nc2n1CC(=O)Nc1ccc(C(F)(F)F)cc1Cl [Compound I-100, N-[2-chloro-4-(trifluoromethyl)phenyl]-2-{5-ethyl-6-[(1S,6S)-5-(4-hydroxy-2-methoxy-5-methylpyridine-3-carbonyl)-2,5-diazabicyclo[4.2.0]octan-2-yl]-2-(2-methylpyridin-4-yl)-7-oxo-2H,4H,7H-[1,2,3]triazolo[4,5-b]pyridin-4-yl}acetamide] | ≤ 500 nM | 5 to 50 nM | –
12 | CCc1c(N2CCN(C(=O)c3ncnc(C)c3O)[C@H]3CC[C@@H]32)c(=O)c2nn(-c3ccnc(OC)c3)nc2n1CC(=O)NC1CC2(C1)CC(C)(C)C2 [Compound I-72, N-{6,6-dimethylspiro[3.3]heptan-2-yl}-2-{5-ethyl-6-[(1S,6S)-5-(5-hydroxy-6-methylpyrimidine-4-carbonyl)-2,5-diazabicyclo[4.2.0]octan-2-yl]-2-(2-methoxypyridin-4-yl)-7-oxo-2H,4H,7H-[1,2,3]triazolo[4,5-b]pyridin-4-yl}acetamide] | 2000 to 5000 nM | 5 to 50 nM | –
13 | CCc1c(N2CCN(C(=O)c3ncnc(C)c3O)[C@H]3CC[C@@H]32)c(=O)c2nn(C3CC3)nc2n1CC(=O)Nc1ccc(C(F)(F)F)cc1Cl [Compound I-153, N-[2-chloro-4-(trifluoromethyl)phenyl]-2-{2-cyclopropyl-5-ethyl-6-[(1S,6S)-5-(5-hydroxy-6-methylpyrimidine-4-carbonyl)-2,5-diazabicyclo[4.2.0]octan-2-yl]-7-oxo-2H,4H,7H-[1,2,3]triazolo[4,5-b]pyridin-4-yl}acetamide] | ≤ 500 nM | ≤ 5 nM | –
14 | CCc1c(N2CCN(C(=O)c3ncnc(C)c3O)CC2)c(=O)c2nn(-c3ccnc(C)c3)nc2n1CC(=O)Nc1ccc(C(F)(F)F)cc1Cl [Compound I-7, N-(2-chloro-4-(trifluoromethyl)phenyl)-2-(5-ethyl-6-(4-(5-hydroxy-6-methylpyrimidine-4-carbonyl)piperazin-1-yl)-2-(2-methylpyridin-4-yl)-7-oxo-2,7-dihydro-4H-[1,2,3]triazolo[4,5-b]pyridin-4-yl)acetamide] | ≤ 500 nM | ≤ 5 nM | –
15 | CCc1c(N2CCN(C(=O)c3c(OC)ncc(F)c3O)[C@H]3CC[C@@H]32)c(=O)c2nn(-c3ccnc(OC)c3)nc2n1CC(=O)NC12CC(C(C)C)(C1)C2 [Compound I-177, 2-{5-ethyl-6-[(1S,6S)-5-(5-fluoro-4-hydroxy-2-methoxypyridine-3-carbonyl)-2,5-diazabicyclo[4.2.0]octan-2-yl]-2-(2-methoxypyridin-4-yl)-7-oxo-2H,4H,7H-[1,2,3]triazolo[4,5-b]pyridin-4-yl}-N-[3-(propan-2-yl)bicyclo[1.1.1]pentan-1-yl]acetamide] | ≤ 500 nM | ≤ 5 nM | –
16 | CCc1c(N2CCN(C(=O)c3c(OC)ncc(COC)c3O)CC2)c(=O)c2nn(-c3ccnc(OC)c3)nc2n1CC(=O)NC12CC(C(C)C)(C1)C2 [Compound I-50, 2-(5-ethyl-6-{4-[4-hydroxy-2-methoxy-5-(methoxymethyl)pyridine-3-carbonyl]piperazin-1-yl}-2-(2-methoxypyridin-4-yl)-7-oxo-2H,4H,7H-[1,2,3]triazolo[4,5-b]pyridin-4-yl)-N-[3-(propan-2-yl)bicyclo[1.1.1]pentan-1-yl]acetamide] | 2000 to 5000 nM | 5 to 50 nM | –
17 | CCc1c(N2CCN(C(=O)c3ncnc(C)c3O)[C@H]3CC[C@@H]32)c(=O)c2nn(-c3ccnc(OC)c3)nc2n1CC(=O)NC12CC(C(C)(F)F)(C1)C2 [Compound I-61, N-[3-(1,1-difluoroethyl)bicyclo[1.1.1]pentan-1-yl]-2-{5-ethyl-6-[(1S,6S)-5-(5-hydroxy-6-methylpyrimidine-4-carbonyl)-2,5-diazabicyclo[4.2.0]octan-2-yl]-2-(2-methoxypyridin-4-yl)-7-oxo-2H,4H,7H-[1,2,3]triazolo[4,5-b]pyridin-4-yl}acetamide] | – | 5 to 50 nM | ≤ 500 nM

Source: patent US20250129069A1, “TRIAZOLO WRN INHIBITORS” (Nimbus Wadjet, Inc., priority 2023, published 2025)
